Measured values as given in US8282935B2 (priority 2001, dated 2012).

System: A2 molecules
Format: binding, human

**Q.** How did the “binding affinity for A2 molecules” value turn out when “M L L A V L Y C L (SEQ ID NO: 5) [tyrosinase 1-9]” was run?
**A.** significantly lower affinity
